Test results as given in ChEMBL document CHEMBL1136853, “Synthesis and SAR of vinca alkaloid analogues” (Bioorg Med Chem Lett, 2009).

Columns and labels:
[1] = system: MCF7; assay: Cytotoxicity against human MCF7 cells; assay type: functional
[2] = system: HeLa; assay: Cytotoxicity against human HeLa cells; assay type: functional
[3] = system: P388; assay: Antitumor activity against mouse P388 cells xenografted in mouse assessed as median life span at 12 mg/kg, ip q4d for 3 days measured for 60 days; assay type: functional; settings: route intraperitoneal
[4] = system: P388; assay: Antitumor activity against mouse P388 cells xenografted in mouse assessed as median life span at 6 mg/kg, ip q4d for 3 days measured for 60 days; assay type: functional; settings: route intraperitoneal
[5] = system: P388; assay: Antitumor activity against mouse P388 cells xenografted in mouse assessed as median life span at 8 mg/kg, ip q4d for 3 days measured for 60 days; assay type: functional; settings: route intraperitoneal
[6] = system: P388; assay: Antitumor activity against mouse P388 cells xenografted in mouse assessed as median life span at 4 mg/kg, ip q4d for 3 days measured for 60 days; assay type: functional; settings: route intraperitoneal
[7] = system: P388; assay: Antitumor activity against mouse P388 cells xenografted in mouse assessed as median life span at 2 mg/kg, ip q4d for 3 days measured for 60 days; assay type: functional; settings: route intraperitoneal
[8] = system: P388; assay: Antitumor activity against mouse P388 cells xenografted in mouse assessed as median life span at 3 mg/kg, ip q4d for 3 days measured for 60 days; assay type: functional; settings: route intraperitoneal
[9] = Toxicity to mouse assessed as mortality at 12 mg/kg, ip q4d for 3 days; assay type: organism-based; parameters: dose 12 mg/kg, route intraperitoneal; settings: in vivo, read-out: Activity

## CC[C@]1(O)C[C@H]2CN(CCc3c([nH]c4ccc(SC)cc34)[C@@](C(=O)OC)(c3cc4c(cc3OC)N(C=O)[C@H]3[C@@](O)(C(=O)OC)[C@H](OC(C)=O)[C@]5(CC)CC=CN6CC[C@]43[C@@H]65)C2)C1
[1]
  GI50: 3 nM
[2]
  GI50: 3 nM

## CC[C@]1(O)C[C@H]2CN(CCc3c([nH]c4ccc(C)cc34)[C@@](C(=O)OC)(c3cc4c(cc3OC)N(C=O)[C@H]3[C@@](O)(C(=O)OC)[C@H](OC(C)=O)[C@]5(CC)CC=CN6CC[C@]43[C@@H]65)C2)C1
[1]
  GI50: 3 nM
[2]
  GI50: 1 nM

## CC[C@]1(O)C[C@H]2CN(CCc3c([nH]c4ccc(-c5ccccc5)cc34)[C@@](C(=O)OC)(c3cc4c(cc3OC)N(C=O)[C@H]3[C@@](O)(C(=O)OC)[C@H](OC(C)=O)[C@]5(CC)CC=CN6CC[C@]43[C@@H]65)C2)C1
[1]
  GI50: 35 nM
[2]
  GI50: 50 nM

## C#Cc1ccc2[nH]c3c(c2c1)CN1CC(CC)=C[C@@H](C1)C[C@]3(C(=O)OC)c1cc2c(cc1OC)N(C)[C@H]1[C@@](O)(C(=O)OC)[C@H](OC(C)=O)[C@]3(CC)CC=CN4CC[C@]21[C@@H]43
[1]
  GI50: 5 nM
[2]
  GI50: 0.4 nM

## CCSc1ccc2[nH]c3c(c2c1)CN1CC(CC)=C[C@@H](C1)C[C@]3(C(=O)OC)c1cc2c(cc1OC)N(C)[C@H]1[C@@](O)(C(=O)OC)[C@H](OC(C)=O)[C@]3(CC)CC=CN4CC[C@]21[C@@H]43
[1]
  GI50: 20 nM
[2]
  GI50: 5 nM

## CCC1=C[C@H]2CN(C1)Cc1c([nH]c3ccc(C#N)cc13)[C@@](C(=O)OC)(c1cc3c(cc1OC)N(C)[C@H]1[C@@](O)(C(=O)OC)[C@H](OC(C)=O)[C@]4(CC)CC=CN5CC[C@]31[C@@H]54)C2
[1]
  GI50: 6 nM
[2]
  GI50: 1 nM

## CCC1=C[C@H]2CN(C1)Cc1c([nH]c3ccc(C(=O)OC)cc13)[C@@](C(=O)OC)(c1cc3c(cc1OC)N(C)[C@H]1[C@@](O)(C(=O)OC)[C@H](OC(C)=O)[C@]4(CC)CC=CN5CC[C@]31[C@@H]54)C2
[1]
  GI50: 50 nM
[2]
  GI50: 30 nM

## CCSc1ccc2[nH]c3c(c2c1)CCN1C[C@H](C[C@@](O)(CC)C1)C[C@]3(C(=O)OC)c1cc2c(cc1OC)N(C=O)[C@H]1[C@@](O)(C(=O)OC)[C@H](OC(C)=O)[C@]3(CC)CC=CN4CC[C@]21[C@@H]43
[1]
  GI50: 8 nM
[2]
  GI50: 6 nM
[3]
  T/C: 105%
[4]
  T/C: 107%

## CC[C@]1(O)C[C@H]2CN(CCc3c([nH]c4ccc(C#N)cc34)[C@@](C(=O)OC)(c3cc4c(cc3OC)N(C=O)[C@H]3[C@@](O)(C(=O)OC)[C@H](OC(C)=O)[C@]5(CC)CC=CN6CC[C@]43[C@@H]65)C2)C1
[1]
  GI50: 4 nM
[2]
  GI50: 10 nM

## CC[C@]1(O)C[C@H]2CN(CCc3c([nH]c4ccc(N5CCCCC5)cc34)[C@@](C(=O)OC)(c3cc4c(cc3OC)N(C)[C@H]3[C@@](O)(C(=O)OC)[C@H](OC(C)=O)[C@]5(CC)CC=CN6CC[C@]43[C@@H]65)C2)C1
[1]
  GI50: 30 nM
[2]
  GI50: 20 nM

## CCC1=C[C@H](C[C@](C(=O)OC)(c2cc3c(cc2OC)N(C)[C@H]2[C@@](O)(C(=O)OC)[C@H](OC(C)=O)[C@]4(CC)CC=CN5CC[C@]32[C@@H]54)c2[nH]c3ccc(N)cc3c2CC)CNC1
[1]
  GI50: 600 nM
[2]
  GI50: 300 nM

## CCC1=C[C@H]2CN(C1)Cc1c([nH]c3ccc(-c4cccc(F)c4)cc13)[C@@](C(=O)OC)(c1cc3c(cc1OC)N(C)[C@H]1[C@@](O)(C(=O)OC)[C@H](OC(C)=O)[C@]4(CC)CC=CN5CC[C@]31[C@@H]54)C2
[1]
  GI50: > 1000 nM
[2]
  GI50: > 1000 nM

## CCC1=C[C@H]2CN(C1)Cc1c([nH]c3ccc(C(N)=O)cc13)[C@@](C(=O)OC)(c1cc3c(cc1OC)N(C)[C@H]1[C@@](O)(C(=O)OC)[C@H](OC(C)=O)[C@]4(CC)CC=CN5CC[C@]31[C@@H]54)C2
[1]
  GI50: > 1000 nM
[2]
  GI50: > 1000 nM

## CC[C@]1(O)C[C@H]2CN(CCc3c([nH]c4ccc(SC)cc34)[C@@](C(=O)OC)(c3cc4c(cc3OC)N(C)[C@H]3[C@@](O)(C(=O)OC)[C@H](OC(C)=O)[C@]5(CC)CC=CN6CC[C@]43[C@@H]65)C2)C1
[1]
  GI50: 2 nM
[2]
  GI50: 0.6 nM
[5]
  T/C: 243%
[6]
  T/C: 110%

## CCC1=C[C@H]2CN(C1)Cc1c([nH]c3ccc(C(C)=O)cc13)[C@@](C(=O)OC)(c1cc3c(cc1OC)N(C)[C@H]1[C@@](O)(C(=O)OC)[C@H](OC(C)=O)[C@]4(CC)CC=CN5CC[C@]31[C@@H]54)C2
[1]
  GI50: 20 nM
[2]
  GI50: 4 nM

## CCC1=C[C@H]2CN(C1)Cc1c([nH]c3ccc(C(=O)O)cc13)[C@@](C(=O)OC)(c1cc3c(cc1OC)N(C)[C@H]1[C@@](O)(C(=O)OC)[C@H](OC(C)=O)[C@]4(CC)CC=CN5CC[C@]31[C@@H]54)C2
[1]
  GI50: > 1000 nM
[2]
  GI50: > 1000 nM

## CCc1ccc2[nH]c3c(c2c1)CCN1C[C@H](C[C@@](O)(CC)C1)C[C@]3(C(=O)OC)c1cc2c(cc1OC)N(C=O)[C@H]1[C@@](O)(C(=O)OC)[C@H](OC(C)=O)[C@]3(CC)CC=CN4CC[C@]21[C@@H]43
[1]
  GI50: 10 nM
[2]
  GI50: 5 nM

## CCC1=C[C@H]2CN(C1)Cc1c([nH]c3ccc(-c4ccccc4)cc13)[C@@](C(=O)OC)(c1cc3c(cc1OC)N(C)[C@H]1[C@@](O)(C(=O)OC)[C@H](OC(C)=O)[C@]4(CC)CC=CN5CC[C@]31[C@@H]54)C2
[1]
  GI50: 300 nM
[2]
  GI50: 70 nM

## CCC1=C[C@H]2CN(C1)Cc1c([nH]c3ccc(SC)cc13)[C@@](C(=O)OC)(c1cc3c(cc1OC)N(C)[C@H]1[C@@](O)(C(=O)OC)[C@H](OC(C)=O)[C@]4(CC)CC=CN5CC[C@]31[C@@H]54)C2
[1]
  GI50: 1 nM
[2]
  GI50: 0.3 nM
[6]
  T/C: 124%
[7]
  T/C: 102%

## CC[C@]1(O)C[C@H]2CN(CCc3c([nH]c4ccc(C)cc34)[C@@](C(=O)OC)(c3cc4c(cc3OC)N(C)[C@H]3[C@@](O)(C(=O)OC)[C@H](OC(C)=O)[C@]5(CC)CC=CN6CC[C@]43[C@@H]65)C2)C1
[1]
  GI50: 0.3 nM
[2]
  GI50: 0.3 nM
[4]
  T/C: 181%
[8]
  T/C: 133%

## CC[C@]1(O)C[C@@H]2CN(CCc3c([nH]c4ccccc34)[C@@](C(=O)OC)(c3cc4c(cc3OC)N(C)[C@H]3[C@@](O)(C(=O)OC)[C@H](OC(C)=O)[C@]5(CC)C=CCN6CC[C@]43[C@@H]65)C2)C1 [VINBLASTINE]
[1]
  GI50: 0.4 nM
[2]
  GI50: 0.9 nM

## CC[C@]1(O)C[C@H]2CN(CCc3c([nH]c4ccccc34)[C@@](C(=O)OC)(c3cc4c(cc3OC)N(C=O)[C@H]3[C@@](O)(C(=O)OC)[C@H](OC(C)=O)[C@]5(CC)C=CCN6CC[C@]43[C@@H]65)C2)C1 [VINCRISTINE]
[1]
  GI50: 1.5 nM
[2]
  GI50: 1.7 nM

## CCC1=C[C@@H]2CN(C1)Cc1c([nH]c3ccccc13)[C@@](C(=O)OC)(c1cc3c(cc1OC)N(C)[C@H]1[C@@](O)(C(=O)OC)[C@H](OC(C)=O)[C@]4(CC)C=CCN5CC[C@]31[C@@H]54)C2 [VINORELBINE]
[1]
  GI50: 2.4 nM
[2]
  GI50: 2.7 nM
[3]
  T/C: 117%
[4]
  T/C: 114%
[9]
  mortality at 72 h: > 10%
